Results: patent US20220313651A1, “INHIBITORS OF ZIKA VIRUS INFECTION” (priority 2019, published 2022)
Like-named read-outs stand apart in the source and are kept apart here.

How the values were obtained:
[1] = system: ZIKV human strain PAN2016 (2016/Panama); test: Plaque reduction inhibition assay in Vero E6 cells, ZIKV PAN2016; format: cell-based, Zika virus (ZIKV)
Method: (§1) A plaque reduction inhibition assay was carried out to measure the inhibitory activity of Z-medicaments against infections of ZIKV and DENV. […] The compound-virus mixtures were then transferred to Vero E6 cells (10^5/well) and incubated at 37° C. for 1 h.

[2] = system: ZIKV human strain FLR (2015/Colombia); test: Plaque reduction inhibition assay in Vero E6 cells, ZIKV FLR; format: cell-based, Zika virus (ZIKV)
Method: as §1

[3] = system: ZIKV human strain R103451 (2015/Honduras); test: Plaque reduction inhibition assay in Vero E6 cells, ZIKV R103451; format: cell-based, Zika virus (ZIKV)
Method: as §1

[4] = system: ZIKV human strain PLCal_ZV (2013/Thailand); test: Plaque reduction inhibition assay in Vero E6 cells, ZIKV PLCal_ZV; format: cell-based, Zika virus (ZIKV)
Method: as §1

[5] = system: ZIKV rhesus macaque strain MR 766 (1947/Uganda); test: Plaque reduction inhibition assay in Vero E6 cells, ZIKV MR 766; format: cell-based, Zika virus (ZIKV)
Method: as §1

Vero E6 cells = test: in vitro
Method: The cytotoxicity of the Z-medicaments in Vero E6 (ZIKV target cells) was evaluated using the Cell Counting Kit-8 (CCK8).
(§2) Briefly, compounds at 2-fold serial dilutions were added to cells (2.0×10^4/well) pre-seeded in 96-well plates. The cells were cultured at 37° C. for 3 days, and incubated with CCK8 solution, followed by measurement of absorbance at 450 nm (A450 value) using microplate reader.

ZIKV PAN2016 strain = test: Combinatorial effects of gossypol with other Z-medicaments, ZIKV PAN2016; format: cell-based, Zika virus (ZIKV)
Method: (§3) The unbound viruses and Z-medicaments were removed, and the cells were cultured at 37° C. for 4-5 days, followed by staining with 0.5% crystal violet. The Z-medicaments without combinations were used as controls. The IC50 of the Z-medicaments was calculated as described above.
(§4) The Z-medicaments were then analyzed for synergistic effects based on the combination index (CI) and IC50 values using the CalcuSyn program. Specifically, CI values <1 and >1 indicate synergy and antagonism, respectively. Synergy was further identified as five different categories: CI values <0.1, 0.1-0.3, 0.3-0.7, 0.7-0.85, and 0.85-0.90 indicate very strong synergism, strong synergism, synergism, moderate synergism, and slight synergism, respectively. Fold enhancement of anti-ZIKV potency is expressed as the ratio of molar concentrations of the Z-medicaments tested alone and in the mixture.

ZIKV FLR strain = test: Combinatorial effects of gossypol with other Z-medicaments, ZIKV FLR; format: cell-based, Zika virus (ZIKV)
Method: as §3, §4

ZIKV PRVABC59 strain = test: Combinatorial effects of gossypol with other Z-medicaments, ZIKV PRVABC59; format: cell-based, Zika virus (ZIKV)
Method: as §3, §4

LLC-MK2 cells = system: LLC-MK2 cells
Method: The cytotoxicity of Z-medicaments in LLC-MK2 (DENV-1-4 target cells) was detected using Cell Counting Kit-8 (CCK8). […] The cells were then incubated with CCK8 solution, and measured absorbance at 450 nm (A450 value) using a microplate reader.
as §2

[6] = system: DENV-1-V1792 (2007/Vietnam); test: microbe, parasite or virus in culture
Description: (§5) Vero E6 and LLC-MK2 cells were maintained in Dulbecco's Modified Eagle Medium (DMEM) supplemented with 8% fetal bovine serum (FBS) and penicillin and streptomycin (P/S). C6/36 cells were maintained in Eagle's Minimal Essential Medium (EMEM) supplemented with 5% FBS and P/S. ZIKV strains, including human strains PAN2016 (2016/Panama), R116265 (2016/Mexico), PAN2015 (2015/Panama), FLR (2015/Colombia), R103451 (2015/Honduras), PRVABC59 (2015/Puerto Rico), PLCal_ZV (2013/Thailand), and IbH 30656 (1968/Nigeria), mosquito strain MEX 2-81 (2016/Mexico), and rhesus macaque strain MR 766 (1947/Uganda), were used in the studies. These ZIKV strains were cultured in Vero E6 cells, and viral titers were detected by a standard plaque-forming assay. DENV human strains, including type 1: DENV-1-V1792 (2007/Vietnam), type 2: DENV-2-V594 (2006/Puerto Rico), type 3: DENV-3-V1043 (2006/Puerto Rico), and type 4: DENV-4-PR 06-65-740 (2006/Puerto Rico), were cultured in C6/36 cells, and the viral titers were determined by plaque-forming assay as described above.
(§6) The inhibitory activity of the Z-medicaments against DENV-1-4 was performed following the similar procedures as for ZIKV, except that LLC-MK2 cells were used for the infection, and cells were cultured at 37° C. for 14-16 days before staining with 0.5% crystal violet.
(§7) After removal of the unbound compounds by centrifugation after addition of 3% PEG-6000, ZIKV was incubated with Vero E6 cells at 37° C. for 1 h. The cells were then washed with PBS, overlaid with DMEM containing 1% carboxymethyl cellulose and 2% FBS, and cultured at 37° C. for 4-5 days, followed by staining with 0.5% crystal violet.

[7] = system: DENV-2-V594 (2006/Puerto Rico); test: microbe, parasite or virus in culture
Description: as §5, §6, §7

[8] = system: DENV-3-V1043 (2006/Puerto Rico); test: microbe, parasite or virus in culture
Description: as §5, §6, §7

[9] = system: DENV-4-PR 06-65-740 (2006/Puerto Rico); test: microbe, parasite or virus in culture
Description: as §5, §6, §7

[10] = Zika virus, Vero C1008, Vero E6 cells, Table 1, read-out: IC50 against ZIKV strain PAN2016
[11] = Zika virus, Vero C1008, Vero E6 cells, Table 1, read-out: IC50 against ZIKV strain FLR
[12] = Zika virus, Vero C1008, Vero E6 cells, Table 1, read-out: IC50 against ZIKV strain R103451
[13] = Zika virus, Vero C1008, Vero E6 cells, Table 1, read-out: IC50 against ZIKV strain PLCal_ZV
[14] = Zika virus, Vero C1008, in Macaca mulatta, Vero E6 cells, Table 1, read-out: IC50 against ZIKV strain MR 766
[15] = Dengue virus, DENV1, LLC-MK2, read-out: IC50 DENV-1-V1792, LLC-MK2 cells, Table 5
[16] = Dengue virus, DENV2, LLC-MK2, read-out: IC50 DENV-2-V594, LLC-MK2 cells, Table 5
[17] = Dengue virus, DENV3, LLC-MK2, read-out: IC50 DENV-3-V1043, LLC-MK2 cells, Table 5
[18] = Dengue virus, DENV4, LLC-MK2, read-out: IC50 DENV-4-PR 06-65-740, LLC-MK2 cells, Table 5
[19] = Zika virus, Vero C1008, read-out: IC50 Alone

C[C@@H]1CC[C@@]2(OC1)O[C@H]1[C@@H](O)[C@H]3[C@@H]4CC[C@H]5C[C@@H](O[C@@H]6O[C@H](CO)[C@H](O[C@@H]7O[C@H](CO)[C@@H](O)[C@H](O[C@@H]8OC[C@@H](O)[C@H](O)[C@H]8O)[C@H]7O[C@@H]7O[C@H](CO)[C@H](O)[C@H](O[C@@H]8O[C@H](CO)[C@@H](O)[C@H](O)[C@H]8O)[C@H]7O)[C@H](O)[C@H]6O)[C@H](O)C[C@]5(C)[C@H]4CC[C@]3(C)[C@H]1[C@@H]2C [Digitonin, digitonin]
IC50 [1, 10]: 4.31 µM
IC50 [2, 11]: 3340 ± 220 nM
IC50 [3, 12]: 4.3 ± 0.43 µM
IC50 [4, 13]: 3190 ± 250 nM
IC50 [5, 14]: 3.77 ± 0.31 µM
CC50 (Vero E6 cells; Vero E6 cells, 3 days, CCK8, Table 1): 56.3 ± 1.2 µM
Fold of Enhancement (ZIKV PAN2016 strain; ZIKV PAN2016, gossypol + digitonin, IC50 alone / in mixture): 3.21
CI (combination index) (ZIKV PAN2016 strain; ZIKV PAN2016, named compound in combination with gossypol): 0.60
Fold of Enhancement (ZIKV FLR strain; ZIKV FLR, gossypol + digitonin, IC50 alone / in mixture): 2.04
CI (combination index) (ZIKV FLR strain; ZIKV FLR, named compound in combination with gossypol): 0.95
Fold of Enhancement (ZIKV PRVABC59 strain; gossypol + digitonin, IC50 alone / in mixture): 6.98
CI (combination index) (ZIKV PRVABC59 strain; named compound in combination with gossypol): 0.29
CC50 (LLC-MK2 cells; 3 days, CCK8, Table 5): 59.02 ± 0.33 µM
IC50 [6, 15]: 5210 ± 350 nM
IC50 [7, 16]: 6560 ± 210 nM
IC50 [8, 17]: 4.07 ± 0.83 µM
IC50 [9, 18]: 6440 ± 340 nM

Cc1cc2c(C(C)C)c(O)c(O)c(C=O)c2c(O)c1-c1c(C)cc2c(C(C)C)c(O)c(O)c(C=O)c2c1O [Gossypol, gossypol]
IC50 [1, 10]: 3.48 µM
IC50 ([1]; Zika virus, Vero C1008, read-out: ZIKV strains IC50, PAN2016): 3.78 ± 0.3 µM
IC50 [2, 11]: 210 ± 10 nM
IC50 ([2]; Zika virus, Vero C1008, read-out: ZIKV strains IC50, FLR): 730 ± 70 nM
IC50 [3, 12]: 2.28 ± 0.1 µM
IC50 ([3]; Zika virus, Vero C1008, read-out: ZIKV strains IC50, R103451): 3.12 ± 0.38 µM
IC50 [4, 13]: 1980 ± 70 nM
IC50 ([4]; Zika virus, Vero C1008, read-out: ZIKV strains IC50, PLCal_ZV): 2880 ± 190 nM
IC50 [5, 14]: 3.75 ± 0.01 µM
IC50 ([5]; Zika virus, Vero C1008, in Macaca mulatta, read-out: ZIKV strains IC50, MR766): 4.14 ± 0.05 µM
CC50 (Vero E6 cells; African green monkey, 3 days): 14.2 ± 0.74 µM
IC50 (ZIKV PAN2016 strain; [19]): 3.79 ± 0.01 µM
IC50 (ZIKV FLR strain; [19]): 260 ± 10 nM
IC50 [6, 15]: 1870 nM
IC50 ([6]; Dengue virus, DENV1, LLC-MK2, read-out: IC50 DENV-1-V1792, LLC-MK2 cells, Table 8): 2060 ± 130 nM
IC50 [7, 16]: 1890 nM
IC50 ([7]; Dengue virus, DENV2, LLC-MK2, read-out: IC50 DENV-2-V594, LLC-MK2 cells, Table 8): 1910 ± 10 nM
IC50 [8, 17]: 3.7 µM
IC50 ([8]; Dengue virus, DENV3, LLC-MK2, read-out: IC50 DENV-3-V1043, LLC-MK2 cells, Table 8): 3.42 ± 0.11 µM
IC50 [9, 18]: 2600 nM
IC50 ([9]; Dengue virus, DENV4, LLC-MK2, read-out: IC50 DENV-4-PR 06-65-740, LLC-MK2 cells, Table 8): 2830 ± 70 nM

Cc1cc2c(C(C)C)c(O)c(O)c(/C=N/n3c(=O)[nH][nH]c3=O)c2c(O)c1-c1c(C)cc2c(C(C)C)c(O)c(O)c(/C=N/n3c(=O)[nH][nH]c3=O)c2c1O [ST087010]
IC50 ([1]; Vero E6 cells, Table 7, gossypol derivatives, read-out: ZIKV strains IC50, PAN2016): 3.17 ± 0.18 µM
IC50 ([2]; Vero E6 cells, Table 7, gossypol derivatives, read-out: ZIKV strains IC50, FLR): 2760 ± 100 nM
IC50 ([3]; Vero E6 cells, Table 7, gossypol derivatives, read-out: ZIKV strains IC50, R103451): 3.6 ± 0.07 µM
IC50 ([4]; Vero E6 cells, Table 7, gossypol derivatives, read-out: ZIKV strains IC50, PLCal_ZV): 2210 ± 80 nM
IC50 ([5]; Vero E6 cells, Table 7, gossypol derivatives, read-out: ZIKV strains IC50, MR766): 3.52 ± 0.2 µM
CC50 relative to that of gossypol (Vero E6 cells; Vero E6 cells): about 3.5 fold
CC50 (Vero E6 cells; Vero E6 cells, Table 7, gossypol derivatives): 49.6 ± 1.83 µM
CC50 (LLC-MK2 cells; Table 8): 47.2 µM
SI (CC50/IC50), DENV-1-V1792 [6]: 15.7
IC50 ([6]; read-out: IC50 DENV-1-V1792, LLC-MK2 cells, Table 8): 3010 ± 110 nM
SI (CC50/IC50), DENV-2-V594 [7]: 14.8
IC50 ([7]; read-out: IC50 DENV-2-V594, LLC-MK2 cells, Table 8): 3190 ± 10 nM
SI (CC50/IC50), DENV-3-V1043 [8]: 14.2
IC50 ([8]; read-out: IC50 DENV-3-V1043, LLC-MK2 cells, Table 8): 3.33 ± 0.08 µM
SI (CC50/IC50), DENV-4-PR 06-65-740 [9]: 15.8
IC50 ([9]; read-out: IC50 DENV-4-PR 06-65-740, LLC-MK2 cells, Table 8): 2980 ± 180 nM
